The source of these data is PMC8165744, “Identification of an Alternative Glycyrrhizin Metabolite Causing Liquorice-Induced Pseudohyperaldosteronism and the Development of ELISA System to Detect the Predictive Biomarker” (Frontiers in Pharmacology, 2021).

Series [1] can be described thus: pharmacokinetics of GA metabolites in EHBRs orally treated with GA. The format is in vivo, Eisai hyperbilirubinuria rats (EHBRs). The settings on record: for concentration at 12 h: Eisai hyperbilirubinuria rat (EHBR), rat, plasma, 200 mg/kg, GA 0.20 g/kg oral, read-out: plasma concentration 12 h after oral administration of GA. As to the method: Pharmacokinetic Experiments of GA Metabolites in EHBRs Orally Treated With GA
Male and female EHBRs (9 week-old) were anaesthetized by an intraperitoneal injection of urethane (1 g/kg) and their jugular veins were exposed. GA suspended in 0.5% carboxymethylcellulose was then administered orally (200 mg/kg) to the unconscious rats, and blood samples were collected from the jugular vein while urine samples were collected using a metabolic cage at appropriate times over a 12 h period.
LC-MS/MS Analysis for GA Metabolites
(§1) Briefly, after diluting serum and urine samples with water to obtain suitable concentrations, they were digested with subtilisin (0.91 U/ml), followed by the addition of astragaloside IV (used as an internal standard; Fujifilm Wako Pure Chemicals, Osaka, Japan), and deproteinized using 80% ethanol. […] The transitions (precursor to daughter) monitored and retention times were as follows: ESI(+), 743.4 to 567.5 m/z (35 and 25 V for cone voltage and collision energy, respectively) for compound 1 (8.1 min); ESI(–), 565.5 to 96.5 m/z (80 and 60 V) for 2 (9.6 min); ESI(–), 549.5 to 96.5 m/z (80 and 60 V) for 3 (15.4 min); ESI(+), 727.3 to 551.2 m/z (30 and 25 V) for 4 (11.3 min); ESI(+), 647.6 to 453.6 m/z (40 and 20 V) for 3MGA (15.0 min); ESI(+), 471.3 to 91.0 m/z (40 and 20 V) for GA (13.4 min); ESI(+), 823.5 to 453.6 m/z (30 and 20 V) for GL (18.4 min); and ESI(+), 785.4 to 143.0 m/z (30 and 20 V) for astragaloside IV (3.0 min). Linear regressions over the concentration range of 2 nM to 2 µM for each compound were examined using the peak-area ratio of the compounds to their internal standards and the least-squares method (r ^ 2 > 0.98). The detection limits for 1, GL, and GA were 6.4 nM, and those for 2, 3, and 4, and 3MGA were 3.2 nM.
FIGURE 5 Pharmacokinetic profiles of glycyrrhizin (GL) metabolites in female (A–C) and male (D–F) Eisai hyperbilirubinuria rats (EHBRs). […] Data of GA, 3MGA, 1, 2, and 3 in (A) and GA, 3MGA, 2, and 3 for (D) are relatively small; their magnified graphs are shown in (B,E), respectively. Concentrations of GA metabolites were measured using liquid chromatography-tandem mass spectrometry (LC-MS/MS), and data are means ± standard error (S.E: n = 4).

Series [2] can be described thus: elimination of GA metabolites in SD rats intravenously injected with GA. Format: in vivo, Sprague-Dawley (SD) rats. As to conditions: female SD rats, GA iv, faeces collected 24 h after injection.
Description: as §1
FIGURE 6 Elimination of glycyrrhizin (GL) metabolites into bile in Sprague-Dawley (SD) rats. Female SD rats (10 week-old) were anesthetized using intraperitoneal injection of urethane (1 g/kg), and biliary tracts were cannulated. […] Concentrations of GA metabolites were measured using liquid chromatography-tandem mass spectrometry (LC-MS/MS) and accumulated elimination of GA-metabolites are means ± standard error (S.E: n = 3).

Series [3] relates to mineralocorticoid receptor (MR). On the set-up: method as in earlier work. As to conditions: ref Ulmann et al., 1975; Armanini et al., 1983; Monder et al., 1989; cited from earlier work.
The subject of another series is anti-3MGA-mAb. Put plainly: competitive ELISA using anti-3MGA-mAb. The format is binding. As to conditions: competitive ELISA in aqueous solution, 3MGA calibrated to 100%. On the procedure:
ELISA System Using anti-3MGA-mAb
An ELISA system to measure the cross-reactivity of compounds 3 and 4 by using 3MGA-HSA-conjugate and anti-3MGA-mAb was used according to the protocol in our previous study ([Ishiuchi et al., 2019]). To measure the concentration of 3 in human serum samples using the system ELISA, 3 was dissolved in normal human serum (Sigma) to prepare standard solutions (16 nM–2.0 µM) and the samples or standard solutions (each 10 µl) and ethanol (40 µl) were well mixed and centrifuged (1.2 × 10^4 × g for 7 min). The supernatant was dried up under nitrogen flow at 40°C overnight, and the residue was dissolved in Can Get Signal® Solution 1 (Toyobo Co., Ltd: Osaka, Japan) (50 µl). […] When the observed values were more than 400 nM, the deproteinized serum samples were further diluted with Can Get Signal® Solution 1 for two or four times and analyzed again to observe values from 15.6 to 400 nM.
FIGURE 4 Development of enzyme-linked immunosorbent assay (ELISA) system to measure concentrations of 3 in human serum samples using anti-18β-glycyrrhetyl-3-O-glucuronide (3MGA)-monoclonal antibody (mAb). […] Standard lines between absorbance and concentrations of compound 3 are shown (D) Accuracy of ELISA system in measuring concentrations of 3 in human serum samples using anti-3MGA-mAb. Human serum samples were deproteinized, and concentration of 3 was measured using ELISA system. […]
A general note: An ELISA detects its analyte on a solid surface through an enzyme-linked reagent.

On the set-up of series [4]: method as in Takahashi et al., 2019. As to conditions: ref Takahashi et al., 2019, cited from earlier work.

Read-outs that look alike come from different tables or passages of the source.

Regarding `CC1(C)[C@@H](OS(=O)(=O)O)CC[C@]2(C)[C@H]3C(=O)C=C4[C@@H]5C[C@@](C)(C(=O)O)C[C@H](O)[C@]5(C)CC[C@@]4(C)[C@]3(C)CC[C@@H]12` [Compound 2, 22α-hydroxy-18β-glycyrrhetyl-3-O-sulfate], the values for the concentration at 12 h in series [1] (female EHBRs) and in series [1] (male EHBRs) were 10000 nM and 8200 nM, respectively. Further, the “accumulative elimination in faeces” value in series [2] is recorded as 0.86 ± 0.1 nmol.

Consider `CC1(C)[C@@H](O)CC[C@]2(C)[C@H]3C(=O)C=C4[C@@H]5C[C@@](C)(C(=O)O)CC[C@]5(C)CC[C@@]4(C)[C@]3(C)CC[C@@H]12` [GA, glycyrrhetinic acid, reference compound], for which the values for the concentration at 12 h in series [1] (female EHBRs) and in series [1] (male EHBRs) were 2700 nM and 2600 nM, respectively. In addition, the “accumulative elimination in faeces” value in series [2] is 9.8 ± 1.3 nmol. Moreover, the “binding activity (ED50) on mineralocorticoid receptor” value in series [3] is listed as “about 100 µM”.

As for `CC1(C)[C@@H](O[C@@H]2O[C@H](C(=O)O)[C@@H](O)[C@H](O)[C@H]2O)CC[C@]2(C)[C@H]3C(=O)C=C4[C@@H]5C[C@@](C)(C(=O)O)CC[C@]5(C)CC[C@@]4(C)[C@]3(C)CC[C@@H]12` [Compound 3MGA, 18β-glycyrrhetyl-3-O-glucuronide, reference compound], the concentration at 12 h is 100 nM in series [1] (female EHBRs) and 1600 nM in series [1] (male EHBRs). The “accumulative elimination in faeces” value in series [2] is “below detectable levels”.

Consider `CC1(C)[C@@H](OS(=O)(=O)O)CC[C@]2(C)[C@H]3C(=O)C=C4[C@@H]5C[C@@](C)(C(=O)O)CC[C@]5(C)CC[C@@]4(C)[C@]3(C)CC[C@@H]12` [Compound 3, 18β-glycyrrhetyl-3-O-sulfate], for which the concentration at 12 h was determined as 2000 nM in series [1] (female EHBRs) and 2200 nM in series [1] (male EHBRs). In series [2], the “accumulative elimination in faeces” value is 1.8 ± 0.3 nmol. In addition, in the series with anti-3MGA-mAb, the “cross-reactivity to anti-3MGA-mAb” value is 23%. Further, the “serum concentration of 3 relative to that of GA (fold higher)” value in series [4] (human serum) was 1.5–2 fold. Moreover, the maximum serum concentration in series [4] (previous clinical study) is recorded as 4.2 µM.

In the case of `CC1(C)[C@@H](O[C@H]2O[C@H](C(=O)O)[C@@H](O)[C@H](O)[C@H]2O[C@@H]2O[C@H](C(=O)O)[C@@H](O)[C@H](O)[C@H]2O)CC[C@]2(C)[C@H]3C(=O)C=C4[C@@H]5C[C@@](C)(C(=O)O)CC[C@]5(C)CC[C@@]4(C)[C@]3(C)CC[C@@H]12` [GL, glycyrrhizin], in series [2], the “accumulative elimination in faeces” value was “below detectable levels”.

As to `CC1(C)[C@@H](OS(=O)(=O)O)CC[C@]2(C)[C@H]3C(=O)C=C4[C@@H]5C[C@@](C)(C(=O)O[C@@H]6O[C@H](C(=O)O)[C@@H](O)[C@H](O)[C@H]6O)C[C@H](O)[C@]5(C)CC[C@@]4(C)[C@]3(C)CC[C@@H]12` [Compound 1, 22α-hydroxy-18β-glycyrrhetyl-3-O-sulfate-30-glucuronide], in series [1] (EHBRs, 12 h after oral GA), the “blood concentration in male rats relative to female rats” value is reported as “approximately 7 fold”. In addition, the concentration at 12 h in series [1] (female EHBRs) was found to be 32000 nM; in series [1] (male EHBRs), 177000 nM. Further, in series [2], the “accumulative elimination in faeces” value is given as “below detectable levels”.
